Measured values as given in article PMC7125978 (Bioorganic & Medicinal Chemistry, 2010).

Key:
[1] = tested on: Respiratory syncytial virus (HeLa); format: cell-based, respiratory syncytial virus (RSV) strain Long; conditions: relative to ribavirin (1)
HCV (Huh-5–2) = assay: HCV subgenomic replicon luciferase assay in Huh 5-2 cells; format: cell-based, hepatitis C virus (HCV)
Punta toro virus (Vero) = assay: microbe, parasite or virus in culture; format: cell-based
[2] = tested on: Influenza A/H3N2 subtype (MDCK); format: cell-based, influenza virus type A (H3N2)
CEM cell extract = assay: Prodrug conversion in crude cell extracts; format: in vitro ADME, human; conditions: for efficiency of conversion among the prodrugs: similar trend in HeLa and MDCK cell extracts
uninfected cells = conditions: for Cytotoxicity MCC: minimum cytotoxic concentration, microscopically detectable alteration of cell morphology
several viruses = format: cell-based
Vaccinia virus (HEL) = format: cell-based, vaccinia virus Lederle strain
[3] = cell extract, 37 °C, after 60 min of incubation

SMILES: C[C@H](NP(=O)(OC[C@H]1O[C@@H](n2cnc(C(N)=O)n2)[C@H](O)[C@@H]1O)Oc1cccc2ccccc12)C(=O)OCc1ccccc1 (stereo partly drawn) [Compound 13, ribavirin-5′-[1-naphthyl(benzoxy-L-alaninyl)] phosphate]
- fold less active than ribavirin, respiratory syncytial virus [1]: about threefold
- potency relative to ribavirin, HCV subgenomic replicon replication (HCV (Huh-5–2)): equipotent to ribavirin
- EC50 (Punta toro virus (Vero); Punta Toro virus, Vero, read-out: Antiviral activity EC50, Punta toro virus (Vero)): > 100 µM
- fold lower potency than ribavirin, influenza virus [2]: ~2 fold
- conversion of isomer tR 19.3 min to metabolite tR 20.2 min (CEM cell extract; cell extract, 37 °C, before second isomer (tR 19.0 min) started to be converted): ≥ 95%
- Cytotoxicity MCC (uninfected cells): >100 µM

SMILES: NC(=O)c1ncn([C@@H]2O[C@H](COP(=O)(N[C@@H](Cc3ccccc3)C(=O)OCc3ccccc3)Oc3cccc4ccccc34)[C@@H](O)[C@H]2O)n1 (stereo partly drawn) [Compound 14, ribavirin-5’-[1-naphthyl(benzoxy-L-phenylalaninyl)] phosphate]
- antiviral activity, all the viruses tested (several viruses): no or borderline activity
- conversion of both diastereoisomers (not separable) to metabolite tR 20.2 min (CEM cell extract; CEM cell extract, 37 °C, within 20 min): 80%
- efficiency of conversion among the prodrugs (CEM cell extract; CEM cell extract): most efficiently converted
- Cytotoxicity MCC (uninfected cells): >100 µM

SMILES: NC(=O)c1ncn([C@@H]2O[C@H](COP(=O)(NCC(=O)OCc3ccccc3)Oc3cccc4ccccc34)[C@@H](O)[C@H]2O)n1 (stereo partly shown) [Compound 15]
- fold less active than ribavirin, respiratory syncytial virus [1]: about threefold
- fold superior to ribavirin, vaccinia virus replication (Vaccinia virus (HEL)): 3–5 fold
- fold superior to ribavirin, Punto Toro virus replication (Punta toro virus (Vero); relative to ribavirin): 3–5 fold
- efficiency of conversion among the prodrugs (CEM cell extract; CEM cell extract): least efficiently converted
- conversion of isomer tR 18.8 min to tR 20.2 (CEM cell extract; [3]): 10%
- levels of isomer tR 18.5 (CEM cell extract; [3]): virtually unaltered
- Cytotoxicity MCC (uninfected cells): >100 µM

SMILES: NC(=O)c1ncn([C@@H]2O[C@H](CO)[C@@H](O)[C@H]2O)n1 [Ribavirin, 1-β-D-ribofuranosyl-1,2,4-triazole-3-carboxamide, reference compound]
- toxicity to uninfected cells (uninfected cells; at 100 μM): non-toxic
- Cytotoxicity MCC (uninfected cells): >100 µM
